Laboratory results published in patent US20060123501A1, “Method for treating inflammatory disorders” (priority 2004, published 2006).
Read-outs that look alike come from different tables or passages of the source.

B1: IL-7: cIAP2-inducing agent that imparts T cells with increased apoptotic resistance (protein, UniProt P13232 26-177, looked up)
Interleukin-7: DCDIEGKDGKQYESVLMVSIDQLLDSMKEIGSNCLNNEFNFFKRHICDANKEGMFLFRAARKLRQFLKMNSTGDFDLHLLKVSEGTTILLNCTGQVKGRKPAALGEAQPTKSLEENKSLKEQKKLNDLCFLKRLLQEIKTCWNKILMGTKEH

Assays:
[1] = test system: cIAP2−/− and control mice; details: LPS 0 μg/kg, D-galactosamine 0.6 g/kg i.p.
From the text: In addition, we exposed cIAP2^−/− mice to a second mode of LPS-induced toxicity, where treatment with D-galactosamine (DGLBN) sensitized mice to endotoxic shock.

[2] = test system: spleen derived T cells; assay: Dexamethasone-induced death of T cells pre-incubated with IL-7; assay type: cell-based, mouse; details: dexamethasone 100 nM
Description: Peritoneal-derived macrophages from cIAP2^−/− (lower panels) and cIAP2^+/+ mice (upper panels) were either pre-treated with LPS for 4 h or not pre-treated prior to exposure to α-Fas antibody and then TUNEL stained to assess cell viability (A). Percentages of viable cells (n=5, average of triplicate wells per mouse, P values were <0.01) are shown within each TUNEL stained panel along with the standard deviation. cIAP2^−/−-derived (open shapes) and cIAP2^+/+-derived (solid shapes) T cells were pre-incubated with a range of IL-7 concentrations and then exposed to dexamethasone and T cell survival was monitored over a 12 h period (B) (n=3, average of triplicate wells per mouse, results are mean±s.d., P values at the 12 h point were <0.05). Peritoneal-derived cell numbers are shown for macrophages of cIAP2^−/− mice and littermate control cIAP2^+/+ mice injected i.p. with LPS(C). […]
Confluent primary cultures of peritoneal-derived macrophages were either pre-treated with LPS (10 μg/ml, 4 h) or not pre-treated prior to exposure to α-Fas antibody (20 μg/ml, clone Jo2) and then TUNEL stained (Roche) to assess cell viability. Primary cultures of spleen derived T cells were pre-incubated with a range of IL-7 concentrations (0, 5, and 10 ng/ml) and then exposed to dexamethasone (100 nM) and T cell survival was monitored over a 12 h period.

Row | Molecule | Survival ([1]; cIAP2+/+ mice) | Survival ([1]; cIAP2−/− mice) | Resistance to apoptosis with or without IL-7 pretreatment ([2]; cIAP2−/− T cells) | Resistance against dexamethasone-induced death after IL-7 pre-exposure ([2]; wild-type T cells, IL-7 5 or 10 ng/ml)
1 | N[C@H]1C(O)O[C@H](CO)[C@H](O)[C@@H]1O (stereo partly drawn) [D-galactosamine] | 6/6 | 6/6 |  | 
2 | B1 |  |  | displayed no difference in the resistance to apoptosis | showed a dose dependent resistance against dexamethasone-induced death
